Test results taken from the supplement of paper PMC10307832.

Tests used:
Test in all cases: relative viability (nuclei count vs DMSO), 5 days (fraction); higher = more cells survive
[1] = compound: O=C(NCCCNc1nc(Nc2cccc(NC(=O)N3CCCC3)c2)ncc1I)c1cccs1 [BX 795] + CC(=O)c1c(C)c2cnc(Nc3ccc(N4CCNCC4)cn3)nc2n(C2CCCC2)c1=O [Palbociclib] (partner 0.5 µM)
Summary of the method: (§1)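 Each reported value is a median over duplicate plates. It expresses relative viability: treated-well nuclei count divided by vehicle-well nuclei count. Lung cancer cell lines in 1536-well plates were dosed by pin tool a day after seeding, alone with one drug or with a fixed anchor-drug dose plus five library-drug doses (not always all listed) in √10 steps, and nuclei were counted after 5 days.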

[2] = compound: O=C(NCCCNc1nc(Nc2cccc(NC(=O)N3CCCC3)c2)ncc1I)c1cccs1 [BX 795] + C[C@]1(O)C[C@@H](c2nc(-c3ccc4ccc(-c5ccccc5)nc4c3)c3c(N)nccn32)C1 [Linsitinib] (partner 1 µM)
Summary of the method: as §1

[3] = compound: O=C(NCCCNc1nc(Nc2cccc(NC(=O)N3CCCC3)c2)ncc1I)c1cccs1 [BX 795] + Cc1cc(Nc2cc(N3CCN(C)CC3)nc(Sc3ccc(NC(=O)C4CC4)cc3)n2)n[nH]1 [Tozasertib] (partner 0.1 µM)
Summary of the method: as §1

[4] = compound: O=C(NCCCNc1nc(Nc2cccc(NC(=O)N3CCCC3)c2)ncc1I)c1cccs1 [BX 795] + Cc1nc(Nc2ncc(C(=O)Nc3c(C)cccc3Cl)s2)cc(N2CCN(CCO)CC2)n1 [Dasatinib] (partner 0.075 µM)
Summary of the method: as §1

[5] = compound: O=C(NCCCNc1nc(Nc2cccc(NC(=O)N3CCCC3)c2)ncc1I)c1cccs1 [BX 795] + Nc1ncn([C@H]2C[C@H](O)[C@@H](CO)O2)c(=O)n1 [Decitabine] (partner 2 µM)
Summary of the method: as §1

Cell Line	relative viability ([1]; first compound 0.04 µM)	relative viability ([1]; first compound 0.1265 µM)	relative viability ([1]; first compound 0.4 µM)	relative viability ([1]; first compound 1.265 µM)	relative viability ([2]; first compound 0.04 µM)	relative viability ([2]; first compound 0.1265 µM)	relative viability ([2]; first compound 0.4 µM)	relative viability ([2]; first compound 1.265 µM)	relative viability ([3]; first compound 0.04 µM)	relative viability ([3]; first compound 0.1265 µM)	relative viability ([3]; first compound 0.4 µM)	relative viability ([3]; first compound 1.265 µM)	relative viability ([4]; first compound 0.04 µM)	relative viability ([4]; first compound 0.1265 µM)	relative viability ([4]; first compound 0.4 µM)	relative viability ([4]; first compound 1.265 µM)	relative viability ([5]; first compound 0.04 µM)	relative viability ([5]; first compound 0.1265 µM)	relative viability ([5]; first compound 0.4 µM)	relative viability ([5]; first compound 1.265 µM)
201T	0.333	0.34	0.376	0.405	1.06	1.08	1.04	1.03	1.06	0.918	1.11	0.963	0.627	0.617	0.629	0.635	0.886	0.871	1	0.867
A549	–	–	–	–	0.579	0.646	0.574	0.552	–	–	–	–	–	–	–	–	0.332	0.289	0.329	0.282
A-427	0.562	0.482	0.508	0.502	1.17	1.13	1.15	0.982	0.227	0.148	0.179	0.136	0.796	0.611	0.709	0.545	0.588	0.588	0.545	0.516
ABC-1	0.768	–	0.765	0.727	0.849	0.914	0.765	0.549	0.193	0.151	0.145	0.148	0.522	0.618	0.557	0.546	1.03	–	1.3	1.49
BEN	0.454	0.436	0.49	0.491	0.996	0.944	0.842	0.864	0.606	0.447	0.523	0.44	0.334	0.315	0.367	0.299	0.886	0.709	0.673	0.672
CAL-12T	0.473	0.55	0.298	0.218	0.833	0.901	0.723	0.374	0.323	0.288	0.298	0.263	0.521	0.387	0.281	0.129	–	–	–	–
COR-L23	0.359	0.287	0.253	0.191	0.909	0.827	0.961	0.4	0.201	0.186	0.168	0.111	0.533	0.496	0.382	0.298	0.53	0.42	0.516	0.319
COR-L 105	0.453	0.338	0.401	0.314	1.08	0.768	0.849	0.447	0.391	0.362	0.405	0.267	0.367	0.357	0.278	0.255	0.636	0.589	0.507	0.603
ChaGo-K-1	0.889	0.929	0.928	0.705	–	–	–	–	0.175	0.226	0.205	0.212	0.5	0.586	0.507	0.546	0.535	0.544	0.538	0.398
EKVX	0.51	0.483	0.381	0.365	1.1	1.21	0.833	0.839	0.38	0.471	0.358	0.331	0.637	0.295	0.539	0.508	0.356	0.336	0.382	0.377
EMC-BAC-2	0.536	0.52	0.512	0.432	0.79	0.888	0.83	0.615	0.277	0.362	0.258	0.175	0.296	0.371	0.287	0.265	1.02	1.03	0.962	0.736
EPLC-272H	0.352	0.419	0.317	0.387	1.33	–	1.06	0.972	0.349	0.277	0.294	0.228	0.436	0.329	0.274	0.267	0.356	0.472	0.374	0.305
H3255	0.323	0.276	0.314	0.316	1.04	1.07	1.05	0.842	0.716	0.605	0.773	0.55	0.361	0.307	0.346	0.386	0.647	0.819	0.664	0.616
HARA	0.237	0.183	0.201	0.208	0.896	0.966	0.916	0.795	0.124	0.0907	0.0944	0.0873	0.241	0.268	0.26	0.276	0.618	0.578	0.684	0.553
HCC-15	0.766	0.712	0.663	0.616	0.915	0.964	0.937	0.675	0.444	0.359	0.482	0.246	0.54	0.587	0.559	0.463	0.585	0.646	0.684	0.448
HCC-44	0.997	0.968	1.05	1.07	0.648	0.668	0.787	0.426	0.934	1.05	0.581	0.351	–	–	–	–	0.952	0.983	1.07	1
HCC-78	0.56	0.437	0.49	0.433	0.624	0.657	0.534	0.554	0.472	0.317	0.345	0.386	0.462	0.379	0.364	0.392	0.913	0.664	0.825	0.653
